# In the supplement of paper PMC10307832:
# What was measured:
# Assay in all cases: relative viability (nuclei count vs DMSO), 5 days (fraction); higher = more cells survive
# [1] = compound: COC1=C(C=C(C=C1)C2=CC3=NC=CN3C(=N2)NC4=C(C=CC=N4)C(=O)N)OC [BAY61-3606] + C[C@]1(O)C[C@@H](c2nc(-c3ccc4ccc(-c5ccccc5)nc4c3)c3c(N)nccn32)C1 [Linsitinib] (partner 1 µM)
# Method in brief: (§1)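 Relative viability equals treated-well nuclei counts divided by vehicle-well nuclei counts. Counts came from 4× images of lung cancer cell lines grown in 1536-well plates for 5 days after pin-tool dosing on the day after seeding. Dosing used one drug alone or a fixed anchor-drug dose plus five library-drug doses (not always all listed) in √10 steps, and values are medians of duplicate plates.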
# [2] = compound: COC1=C(C=C(C=C1)C2=CC3=NC=CN3C(=N2)NC4=C(C=CC=N4)C(=O)N)OC [BAY61-3606] + Cc1cc(Nc2cc(N3CCN(C)CC3)nc(Sc3ccc(NC(=O)C4CC4)cc3)n2)n[nH]1 [Tozasertib] (partner 0.1 µM)
# Method in brief: as §1
# [3] = compound: COc1cccc2c1C(=O)c1c(O)c3c(c(O)c1C2=O)C[C@@](O)(C(=O)CO)C[C@@H]3O[C@H]1C[C@H](N)[C@H](O)[C@H](C)O1 [Doxorubicin] + COc1cc2c(Oc3ccc(NC(=O)C4(C(=O)Nc5ccc(F)cc5)CC4)cc3F)ccnc2cc1OCCCN1CCOCC1 [Foretinib] (partner 0.25 µM)
# Method in brief: as §1
# [4] = compound: COc1cccc2c1C(=O)c1c(O)c3c(c(O)c1C2=O)C[C@@](O)(C(=O)CO)C[C@@H]3O[C@H]1C[C@H](N)[C@H](O)[C@H](C)O1 [Doxorubicin] + Cc1nc(NC(=O)N2CCC[C@H]2C(N)=O)sc1-c1ccnc(C(C)(C)C(F)(F)F)c1 [Alpelisib] (partner 2 µM)
# Method in brief: as §1
cell line,measurement,setting,value
UMC-11,relative viability,[1]; first compound 0.02 µM,1.08
same,relative viability,[1]; first compound 0.06325 µM,1.11
same,relative viability,[1]; first compound 0.2 µM,0.995
same,relative viability,[1]; first compound 0.6325 µM,1.08
same,relative viability,[1]; first compound 2 µM,1
same,relative viability,[2]; first compound 0.02 µM,0.2
same,relative viability,[2]; first compound 0.06325 µM,0.208
same,relative viability,[2]; first compound 0.2 µM,0.207
same,relative viability,[2]; first compound 0.6325 µM,0.201
same,relative viability,[2]; first compound 2 µM,0.192
same,relative viability,[3]; first compound 0.001 µM,0.963
same,relative viability,[3]; first compound 0.003162 µM,1.02
same,relative viability,[3]; first compound 0.01 µM,1.02
same,relative viability,[3]; first compound 0.03162 µM,0.685
same,relative viability,[3]; first compound 0.1 µM,0.644
same,relative viability,[4]; first compound 0.001 µM,1.11
same,relative viability,[4]; first compound 0.003162 µM,1.17
same,relative viability,[4]; first compound 0.01 µM,0.958
same,relative viability,[4]; first compound 0.03162 µM,0.693
same,relative viability,[4]; first compound 0.1 µM,0.968
